Test results from US20140228287A1, “1-[(3-CYANO-PYRIDIN-2-YL)METHYL]-3-METHYL-7-(2-BUTYN-1-YL)-8-[3-(R)-AMINO-PIPERIDIN-1-YL]-AXANTHINE FOR THE TREATMENT OF A METABOLIC DISORDER OF A PREDOMINANTLY CARNIVOROUS NON-HUMAN ANIMAL” (BOEHRINGER INGELHEIM VETMEDICA GMBH, priority 2010, published 2014).
Where a name gives a salt, the structure may show the parent alone. Read-outs that look alike come from different tables or passages of the source.

Columns and labels:
[1] = system: normoglycaemic C57B1/6J mice; test: Oral glucose tolerance test (acute and delayed) in normoglycaemic mice; assay type: in vivo, mouse; conditions: for ED50: Mus musculus, po, read-out: ED50 for lowering the glucose AUC
Protocol: The effect of 1-[(3-cyano-pyridin-2-yl)methyl]-3-methyl-7-(2-butyn-1-yl)-8-[3-(R)-amino-piperidin-1-yl]-xanthine on glucose tolerance in normoglycaemic C57B1/6J mice was assessed according to the following protocol of an oral glucose tolerance test (OGTT).
Male C57B1/6J mice (C57BL/6J@Rj) were obtained from Janvier (France). Animals were fed ad libitum with a standard pelleted diet (Diet No. 3438 [containing 19% protein, 4.5% fat], Provimi Kliba, Switzerland) and had free access to water. Animals were individually housed with a 12 h/12 h light/dark cycle (lights out between 6 p.m. and 6 a.m.). The mice were used for the experiments at 9 weeks of age.
For the determination of the acute oral glucose tolerance test, a basal blood sample (pre-dose) was obtained in the morning from overnight fasted C57B1/6J mice (n=7 per group) by cutting the tip of the tail without anaesthesia. Subsequently, the groups received a single oral administration of either vehicle or 1-[(3-cyano-pyridin-2-yl)methyl]-3-methyl-7-(2-butyn-1-yl)-8-[3-(R)-amino-piperidin-1-yl]-xanthine monohydrochloride at doses between 0.1 and 10 mg/kg bw, followed 45 min later by an oral administration of a glucose solution (2 g/kg bw, application volume 10 ml/kg bw). Additional blood samples were taken from the tip of the tail 30 min, 60 min, 90 min, 120 min, and 180 min after the glucose load, and blood glucose was measured. A final blood sample was drawn from the retrobulbal venous plexus under isoflurane anaesthesia 30 minutes after the last bleeding from the tail. EDTA plasma was prepared from this blood sample and frozen for determination of DPP-IV activity.
For the determination of the delayed oral glucose tolerance test, C57B1/6J mice (n=5 per group) were orally administered with either vehicle or 1-[(3-cyano-pyridin-2-yl)methyl]-3-methyl-7-(2-butyn-1-yl)-8-[3-(R)-amino-piperidin-1-yl]-xanthine monohydrochloride at doses between 0.1 and 10 mg/kg bw in the afternoon before the oral glucose tolerance test. […] Additional blood samples were taken from the tip of the tail 30 min, 60 min, 90 min, 120 min, and 180 min after the glucose load, and blood glucose was measured. […]
The two-sided unpaired Student t-test was used for statistical comparison of the control group and the active groups with the 5% level as the limit of statistical significance (*, P <0.05; **, P<0.01; ***, P<0.001). […] Changes from baseline (pre-dose value) within each group were analyzed by a paired Student t-test.
The area under the curve (AUC) for the time course of blood glucose concentrations during an OGTT was calculated by the trapezoidal rule after correction for the baseline values.
ED50 values were calculated by nonlinear regression analysis with a Hill coefficient of 1. […]

DPP IV = molecular target: T1, DPP IV (Felis catus, UniProt Q9N2I7); test: Exploratory single dose PK/PD (0.3/1.0/3.0 mg/kg) in cats: DPP IV activity; assay type: in vivo, cat; conditions: for response vs control in vivo at 0.3 mg/kg: 0.3 mg/kg single oral; for response vs control in vivo at 0.3 mg/kg / response vs control in vivo at 1 mg/kg / response vs control in vivo at 3 mg/kg: read-out: DPP IV activity in cat plasma (0 h = 100%); for response vs control in vivo at 1 mg/kg: 1 mg/kg single oral; for response vs control in vivo at 3 mg/kg: 3 mg/kg single oral
T1 construct: Blood samples for the determination of this compound and DPP IV activity were collected; from tissue; host or cells: plasma of domestic short hair / purpose-bred cats dosed orally
Protocol: The aim of this first study was to investigate the PK/PD of 1-[(3-cyano-pyridin-2-yl)methyl]-3-methyl-7-(2-butyn-1-yl)-8-[3-(R)-amino-piperidin-1-yl]-xanthine in the cat after a single oral administration of 0, 0.3, 1.0 and 3.0 mg/kg body weight. For this purpose, twelve male clinically healthy adult domestic short hair cats with a body weight range of 3.5-4.5 kg were used. All animals were treated once orally with placebo or the respective 1-[(3-cyano-pyridin-2-yl)methyl]-3-methyl-7-(2-butyn-1-yl)-8-[3-(R)-amino-piperidin-1-yl]-xanthine monohydrochloride dose formulation. Blood samples for the determination of this compound and DPP IV activity were collected at 0 (pre-dose), 0.5, 1, 2, 4, 8, 24, 36, 48, 72 and 96 hours after treatment and the activity of DPP IV was determined like in example 6.
The resulting pharmacodynamic data from this experiment are summarized in following Table 3; the value of 0 h was set to 100% for each treatment.

T1 sequence (Q9N2I7 38-765 limits assumed): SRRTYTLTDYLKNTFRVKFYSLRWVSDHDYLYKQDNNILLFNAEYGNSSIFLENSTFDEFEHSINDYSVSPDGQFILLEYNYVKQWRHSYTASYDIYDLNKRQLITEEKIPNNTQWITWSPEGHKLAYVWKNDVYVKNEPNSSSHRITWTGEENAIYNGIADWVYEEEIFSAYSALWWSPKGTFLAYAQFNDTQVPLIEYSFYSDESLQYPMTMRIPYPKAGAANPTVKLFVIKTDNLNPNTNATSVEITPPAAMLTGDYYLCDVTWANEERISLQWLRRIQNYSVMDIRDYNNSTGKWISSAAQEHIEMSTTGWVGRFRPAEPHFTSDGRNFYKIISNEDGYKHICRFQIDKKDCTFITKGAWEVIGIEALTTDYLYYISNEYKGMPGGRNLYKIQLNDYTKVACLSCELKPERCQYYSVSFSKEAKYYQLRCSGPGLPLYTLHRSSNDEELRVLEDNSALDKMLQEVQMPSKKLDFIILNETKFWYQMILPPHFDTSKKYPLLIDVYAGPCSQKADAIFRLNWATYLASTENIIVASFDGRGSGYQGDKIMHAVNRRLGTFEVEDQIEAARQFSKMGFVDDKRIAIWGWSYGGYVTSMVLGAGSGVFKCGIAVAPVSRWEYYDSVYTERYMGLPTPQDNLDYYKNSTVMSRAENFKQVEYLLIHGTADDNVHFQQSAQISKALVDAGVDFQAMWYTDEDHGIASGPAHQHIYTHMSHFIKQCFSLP

Compound: CC#CCn1c(N2CCC[C@@H](N)C2)nc2c1c(=O)n(Cc1ncccc1C#N)c(=O)n2C [1-[(3-cyano-pyridin-2-yl)methyl]-3-methyl-7-(2-butyn-1-yl)-8-[3-(R)-amino-piperidin-1-yl]-xanthine monohydrochloride]
- reduction of AUC for glucose excursion in OGTT ([1]; 1 mg/kg 16 hours before OGTT (delayed setting)): 29%
- ED50 ([1]; acute setting): 0.2 mg/kg
- ED50 ([1]; delayed setting): 0.3 mg/kg
- suppression of AUC for glucose excursion in OGTT ([1]; acute dosing of 1 mg/kg): 38%
- response vs control in vivo at 0.3 mg/kg (DPP IV; 0.5 h): 15%
- response vs control in vivo at 0.3 mg/kg (DPP IV; 1 h): 13%
- response vs control in vivo at 0.3 mg/kg (DPP IV; 2 h): 13%
- response vs control in vivo at 0.3 mg/kg (DPP IV; 4 h): 15%
- response vs control in vivo at 0.3 mg/kg (DPP IV; 8 h): 19%
- response vs control in vivo at 0.3 mg/kg (DPP IV; 24 h): 54%
- response vs control in vivo at 0.3 mg/kg (DPP IV; 36 h): 84%
- response vs control in vivo at 0.3 mg/kg (DPP IV; 48 h): 93%
- response vs control in vivo at 0.3 mg/kg (DPP IV; 72 h): 95%
- response vs control in vivo at 0.3 mg/kg (DPP IV; 96 h): 95%
- response vs control in vivo at 1 mg/kg (DPP IV; 0.5 h): 11%
- response vs control in vivo at 1 mg/kg (DPP IV; 1 h): 11%
- response vs control in vivo at 1 mg/kg (DPP IV; 2 h): 12%
- response vs control in vivo at 1 mg/kg (DPP IV; 4 h): 12%
- response vs control in vivo at 1 mg/kg (DPP IV; 8 h): 15%
- response vs control in vivo at 1 mg/kg (DPP IV; 24 h): 42%
- response vs control in vivo at 1 mg/kg (DPP IV; 36 h): 67%
- response vs control in vivo at 1 mg/kg (DPP IV; 48 h): 80%
- response vs control in vivo at 1 mg/kg (DPP IV; 72 h): 91%
- response vs control in vivo at 1 mg/kg (DPP IV; 96 h): 92%
- response vs control in vivo at 3 mg/kg (DPP IV; 0.5 h): 16%
- response vs control in vivo at 3 mg/kg (DPP IV; 1 h): 13%
- response vs control in vivo at 3 mg/kg (DPP IV; 2 h): 12%
- response vs control in vivo at 3 mg/kg (DPP IV; 4 h): 14%
- response vs control in vivo at 3 mg/kg (DPP IV; 8 h): 17%
- response vs control in vivo at 3 mg/kg (DPP IV; 24 h): 49%
- response vs control in vivo at 3 mg/kg (DPP IV; 36 h): 66%
- response vs control in vivo at 3 mg/kg (DPP IV; 48 h): 85%
- response vs control in vivo at 3 mg/kg (DPP IV; 72 h): 101%
- response vs control in vivo at 3 mg/kg (DPP IV; 96 h): 95%
- inhibition of DPP IV (DPP IV; all doses (0.3, 1.0, 3.0 mg/kg single oral)): more than 80%
